One assay deals with T1, GPR1 (Homo sapiens, UniProt P46091).
T1 construct: expressed in transfected cells; host or cells: COS-7, transient
Nature of the assay: cell-based. Conditions: for Emax: COS-7. As to the method: Arrestin recruitment was characterized by measuring the bioluminescence resonance energy transfer (BRET) ratio between luciferase-tagged arrestin3 and either GPR1-eYFP or CMKLR1-eYFP as described previously. In brief, COS-7 cells in 75 cm^2 cell culture flasks were transiently transfected overnight with 7800 ng GPR1-eYFP or CMKLR1-eYFP in pVitro2 and 200 ng Rluc8-Arr3 in pcDNA3 using MetafectenePro according to the manufacturer’s protocol. […] For kinetic measurements, cells were stimulated with agonist in buffer or buffer alone, and fluorescence was measured for 20 min using a Tecan Infinite M 200 Reader (Tecan, Männerdorf, Switzerland) using the filter sets Green1 (YFP emission, luminescence 520–570 nm) and Blue1 (luciferase luminescence 370–480 nm). For concentration–response curves, cells were stimulated with agonist or blank, and luminescence was measured after 10 min. BRET signal was calculated as the ratio of fluorescence divided by luminescence, netBRET signal was calculated by subtracting the BRET signal of unstimulated wells from the respective samples.

The next assay addresses T2, GPR1-eYFP (human) (UniProt P46091).
T2 sequence: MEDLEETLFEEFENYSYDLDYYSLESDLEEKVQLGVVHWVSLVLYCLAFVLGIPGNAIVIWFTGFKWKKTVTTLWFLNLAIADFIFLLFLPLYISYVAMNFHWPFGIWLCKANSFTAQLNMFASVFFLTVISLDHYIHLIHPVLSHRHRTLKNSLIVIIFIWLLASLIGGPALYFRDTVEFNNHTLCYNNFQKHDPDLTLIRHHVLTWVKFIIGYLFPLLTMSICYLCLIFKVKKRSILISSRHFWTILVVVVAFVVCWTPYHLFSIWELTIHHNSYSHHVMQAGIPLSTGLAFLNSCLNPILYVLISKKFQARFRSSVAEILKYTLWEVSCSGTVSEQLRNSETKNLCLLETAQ

Ends that are not written are not given here. Peptide text beside a SMILES is read from it.

12 molecules from paper PMC8429170, “Ligand-binding and -scavenging of the chemerin receptor GPR1” (Cellular and Molecular Life Sciences: CMLS, 2021) can be followed below.

T1 sequence (P32120 whole entry partner, one chain of several): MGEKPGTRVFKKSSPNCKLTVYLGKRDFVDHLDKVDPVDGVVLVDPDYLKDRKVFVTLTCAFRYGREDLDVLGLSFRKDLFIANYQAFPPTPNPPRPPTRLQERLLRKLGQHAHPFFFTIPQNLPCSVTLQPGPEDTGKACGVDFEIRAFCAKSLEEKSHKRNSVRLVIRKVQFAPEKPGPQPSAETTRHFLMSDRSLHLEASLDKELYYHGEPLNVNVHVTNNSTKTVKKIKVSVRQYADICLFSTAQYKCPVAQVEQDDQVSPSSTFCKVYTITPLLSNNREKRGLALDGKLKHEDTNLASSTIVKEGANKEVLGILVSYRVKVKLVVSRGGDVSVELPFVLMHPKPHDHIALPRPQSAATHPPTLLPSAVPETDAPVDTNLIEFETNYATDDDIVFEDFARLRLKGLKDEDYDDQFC

The EC50 is the concentration giving half of the maximal effect. A high value points to weaker potency. Molecule `C[C@@H]1NC(=O)[C@H](Cc2ccccc2)NC(=O)[C@H](CCC(N)=O)NC(=O)[C@H](NC(=O)[C@@H]2CCCN2C(=O)[C@H](Cc2ccccc2)NC(=O)[C@@H](N)Cc2ccc(O)cc2)CCSSC[C@@H](C(=O)O)NC(=O)[C@H](Cc2ccccc2)NC1=O` [[4-9]-c(chemerin-9)] (HELM PEPTIDE1{Y.F.P.[O=C([C@@H](CCS[*:3])N[*:1])[*:2]].Q.F.A.F.C}$PEPTIDE1,PEPTIDE1,4:R3-9:R3$$$V2.0) yielded an EC50 at GPR1 of 3.3 nM. This lies in the single-digit nanomolar range.
In the assay with GPR1-eYFP (human), Chem^149-155 (chemerin-7) (peptide) had an EC50 of arrestin3 recruitment to GPR1-eYFP (BRET with Rluc8-Arr3, COS-7 cells) of over 1000 nM.
Usually Emax stands for the maximal effect, on the per cent scale that the assay sets. At GPR1, FPGQFAFS [Chem^150−157] showed a concentration for a half-maximal effect (EC50) of 22.4 nM and an Emax of 87 ± 8%.
Taken in the same sequence, the figures for QRAGEDPHSFYFPGQFAF [Chem^139−156] were 2.95 nM and 99 ± 9%.
Take QRAGEDPHSFYFPGQFAFS [Chem^139−157]: on GPR1, the concentration giving a half-maximal response (EC50) is 3.09 nM and the Emax stood at 94 ± 7%.
Taken in the same sequence, the figures for YFPGQFAF [Chem^149−156] were 3.98 nM and 110 ± 16%.
For the molecule QRAGEDPHSFYFPGQFAF [Chem^139-156], the EC50 of arrestin3 recruitment to GPR1-eYFP (BRET with Rluc8-Arr3, COS-7 cells) in the assay with GPR1-eYFP (human) turned out to be 2.9 nM.
Same read-out and setting: in the case of QRAGEDPHSFYFPGQFAFS [Chem^139-157] it was 3.1 nM.
PGQFAFS [Chem^151-157] registered an EC50 of arrestin3 recruitment to GPR1-eYFP (BRET with Rluc8-Arr3, COS-7 cells) with GPR1-eYFP (human) of over 1000 nM.
In turn, YFPGQFAF [Chem^149-156] yielded an EC50 of arrestin3 recruitment to GPR1-eYFP (BRET with Rluc8-Arr3, COS-7 cells) in the assay with GPR1-eYFP (human) of 4 nM.
Same read-out and setting: in the case of FPGQFAFS [Chem^150-157] it was 22 nM; in that of QFYSFFPAG [scr2C9], over 1000 nM.
